# Data taken from the OligoGym collection.
# HELM strings list units from the 5' end as sugar, base in round brackets, then linkage (d deoxyribose, r ribose, m 2'-O-methyl, p phosphodiester). Strings are as the collection lists them; they lack the last nucleoside at the 3' end of the tested compound. [moe] = 2'-O-(2-methoxyethyl) (MOE); [sp] = phosphorothioate linkage; [m5C] = 5-methylcytosine
# Target: C9ORF72
# Assay: mouse, dose not given
# Details: ASO
row,Substance,3 h FOB score
1,RNA1{[moe]([m5C])[sp].[moe](A)p.[moe](G)p.[moe](G)p.[moe]([m5C])p.[moe](T)[sp].d(G)[sp].d([m5C])[sp].d(G)[sp].d(G)[sp].d(T)[sp].d(T)[sp].d(G)[sp].d(T)[sp].[moe](T)p.[moe](T)[sp].[moe]([m5C])}$$$$ (last 3' nucleoside missing),4.5 score 0-7
2,RNA1{[moe]([m5C])[sp].[moe]([m5C])p.[moe]([m5C])p.[moe]([m5C])[sp].d(T)[sp].d(A)[sp].d(G)[sp].d([m5C])[sp].d(G)[sp].d([m5C])[sp].d(G)[sp].d([m5C])[sp].[moe](G)p.[moe](A)p.[moe]([m5C])p.[moe](T)[sp].[moe]([m5C])}$$$$ (last 3' nucleoside missing),1 score 0-7
3,RNA1{[moe](T)[sp].[moe]([m5C])p.[moe](T)p.[moe](G)p.[moe](T)p.[moe]([m5C])[sp].d(T)[sp].d(T)[sp].d(T)[sp].d(G)[sp].d(G)[sp].d(A)[sp].d(G)[sp].d([m5C])[sp].[moe]([m5C])p.[moe]([m5C])[sp].[moe](A)}$$$$ (last 3' nucleoside missing),5.5 score 0-7
4,RNA1{[moe]([m5C])[sp].[moe]([m5C])p.[moe](G)p.[moe](G)p.[moe]([m5C])p.d([m5C])[sp].d([m5C])[sp].d([m5C])[sp].d(T)[sp].d(A)[sp].d(G)[sp].d([m5C])[sp].d(G)[sp].d([m5C])[sp].[moe](G)p.[moe]([m5C])p.[moe](G)[sp].[moe](A)}$$$$ (last 3' nucleoside missing),4.5 score 0-7
5,RNA1{[moe](G)[sp].[moe](G)[sp].[moe](G)[sp].[moe](A)[sp].[moe]([m5C])[sp].d(A)[sp].d([m5C])[sp].d(T)[sp].d(A)[sp].d([m5C])[sp].d(A)[sp].d(A)[sp].d(G)[sp].d(G)[sp].d(T)[sp].[moe](A)[sp].[moe](G)[sp].[moe](T)[sp].[moe](A)}$$$$ (last 3' nucleoside missing),5.67 score 0-7
6,RNA1{[moe](G)[sp].[moe](G)p.[moe]([m5C])p.[moe]([m5C])p.[moe]([m5C])p.[moe]([m5C])p.d(T)[sp].d(A)[sp].d(G)[sp].d([m5C])[sp].d(G)[sp].d([m5C])[sp].d(G)[sp].d([m5C])[sp].d(G)[sp].d(A)[sp].[moe]([m5C])p.[moe](T)[sp].[moe]([m5C])}$$$$ (last 3' nucleoside missing),1.25 score 0-7
7,RNA1{[moe]([m5C])[sp].[moe]([m5C])p.[moe]([m5C])p.[moe]([m5C])p.[moe](T)p.[moe](A)p.d(G)[sp].d([m5C])[sp].d(G)[sp].d([m5C])[sp].d(G)[sp].d([m5C])[sp].d(G)[sp].d(A)[sp].d([m5C])[sp].d(T)[sp].[moe]([m5C])p.[moe]([m5C])[sp].[moe](T)}$$$$ (last 3' nucleoside missing),6 score 0-7
8,RNA1{[moe]([m5C])[sp].[moe]([m5C])p.[moe]([m5C])p.[moe]([m5C])p.[moe](T)p.[moe](A)[sp].d(G)[sp].d([m5C])[sp].d(G)[sp].d([m5C])[sp].d(G)[sp].d([m5C])[sp].d(G)[sp].d(A)[sp].[moe]([m5C])p.[moe](T)[sp].[moe]([m5C])}$$$$ (last 3' nucleoside missing),2 score 0-7
9,RNA1{[moe](A)[sp].[moe](G)p.[moe](G)p.[moe]([m5C])p.d(T)[sp].d(G)[sp].d([m5C])[sp].d(G)[sp].d(G)[sp].d(T)[sp].d(T)[sp].d(G)[sp].d(T)[sp].[moe](T)p.[moe](T)p.[moe]([m5C])p.[moe]([m5C])[sp].[moe]([m5C])}$$$$ (last 3' nucleoside missing),6.5 score 0-7
10,RNA1{[moe]([m5C])[sp].[moe](G)p.[moe](G)p.[moe]([m5C])p.[moe]([m5C])p.[moe]([m5C])[sp].d([m5C])[sp].d(T)[sp].d(A)[sp].d(G)[sp].d([m5C])[sp].d(G)[sp].d([m5C])[sp].d(G)[sp].[moe]([m5C])p.[moe](G)[sp].[moe](A)}$$$$ (last 3' nucleoside missing),4.5 score 0-7
11,RNA1{[moe]([m5C])[sp].[moe]([m5C])p.[moe]([m5C])p.[moe](T)p.[moe](A)p.[moe](G)p.d([m5C])[sp].d(G)[sp].d([m5C])[sp].d(G)[sp].d([m5C])[sp].d(G)[sp].d(A)[sp].d([m5C])[sp].d(T)[sp].d([m5C])[sp].[moe]([m5C])p.[moe](T)[sp].[moe](G)}$$$$ (last 3' nucleoside missing),1.25 score 0-7
12,RNA1{[moe]([m5C])[sp].[moe]([m5C])p.[moe]([m5C])p.[moe]([m5C])p.d(T)[sp].d(A)[sp].d(G)[sp].d([m5C])[sp].d(G)[sp].d([m5C])[sp].d(G)[sp].d([m5C])[sp].d(G)[sp].d(A)[sp].[moe]([m5C])p.[moe](T)p.[moe]([m5C])p.[moe]([m5C])[sp].[moe](T)}$$$$ (last 3' nucleoside missing),3.75 score 0-7
13,RNA1{[moe](G)[sp].[moe]([m5C])p.[moe]([m5C])p.[moe](T)p.d(T)[sp].d(A)[sp].d([m5C])[sp].d(T)[sp].d([m5C])[sp].d(T)[sp].d(A)[sp].d(G)[sp].d(G)[sp].d(A)[sp].[moe]([m5C])p.[moe]([m5C])p.[moe](A)p.[moe](A)[sp].[moe](G)}$$$$ (last 3' nucleoside missing),5.75 score 0-7
14,RNA1{[moe](G)[sp].[moe]([m5C])[sp].[moe]([m5C])[sp].[moe](T)[sp].[moe](T)[sp].d(A)[sp].d([m5C])[sp].d(T)[sp].d([m5C])[sp].d(T)[sp].d(A)[sp].d(G)[sp].d(G)[sp].d(A)[sp].d([m5C])[sp].[moe]([m5C])[sp].[moe](A)[sp].[moe](A)[sp].[moe](G)}$$$$ (last 3' nucleoside missing),7 score 0-7
15,RNA1{[moe](T)[sp].[moe]([m5C])p.[moe](T)p.[moe](G)[sp].d(T)[sp].d([m5C])[sp].d(T)[sp].d(T)[sp].d(T)[sp].d(G)[sp].d(G)[sp].d(A)[sp].[moe](G)p.[moe]([m5C])p.[moe]([m5C])p.[moe]([m5C])[sp].[moe](A)}$$$$ (last 3' nucleoside missing),5.25 score 0-7
16,RNA1{[moe]([m5C])[sp].[moe](A)p.[moe](G)p.[moe](G)p.d([m5C])[sp].d(T)[sp].d(G)[sp].d([m5C])[sp].d(G)[sp].d(G)[sp].d(T)[sp].d(T)[sp].d(G)[sp].d(T)[sp].[moe](T)p.[moe](T)p.[moe]([m5C])p.[moe]([m5C])[sp].[moe]([m5C])}$$$$ (last 3' nucleoside missing),4.75 score 0-7
17,RNA1{[moe](T)[sp].[moe]([m5C])p.[moe](T)p.[moe](G)p.[moe](T)p.[moe]([m5C])p.[moe](T)[sp].d(T)[sp].d(T)[sp].d(G)[sp].d(G)[sp].d(A)[sp].d(G)[sp].d([m5C])[sp].d([m5C])[sp].[moe]([m5C])[sp].[moe](A)}$$$$ (last 3' nucleoside missing),6.25 score 0-7
18,RNA1{[moe]([m5C])[sp].[moe](G)p.[moe](G)p.[moe]([m5C])p.d([m5C])[sp].d([m5C])[sp].d([m5C])[sp].d(T)[sp].d(A)[sp].d(G)[sp].d([m5C])[sp].d(G)[sp].d([m5C])[sp].[moe](G)p.[moe]([m5C])p.[moe](G)p.[moe](A)[sp].[moe]([m5C])}$$$$ (last 3' nucleoside missing),5.25 score 0-7
19,RNA1{[moe](G)[sp].[moe]([m5C])p.[moe]([m5C])p.d(T)[sp].d(T)[sp].d(A)[sp].d([m5C])[sp].d(T)[sp].d([m5C])[sp].d(T)[sp].d(A)[sp].d(G)[sp].d(G)[sp].[moe](A)p.[moe]([m5C])p.[moe]([m5C])p.[moe](A)p.[moe](A)[sp].[moe](G)}$$$$ (last 3' nucleoside missing),2 score 0-7
20,RNA1{[moe](T)[sp].[moe](G)p.[moe](G)p.[moe](T)[sp].d(T)[sp].d(A)[sp].d(A)[sp].d(T)[sp].d([m5C])[sp].d(T)[sp].d(T)[sp].d(T)[sp].[moe](A)p.[moe](T)p.[moe]([m5C])p.[moe](A)[sp].[moe](G)}$$$$ (last 3' nucleoside missing),3.25 score 0-7
21,RNA1{[moe]([m5C])[sp].[moe](G)p.[moe](G)p.[moe]([m5C])p.[moe]([m5C])p.[moe]([m5C])p.d([m5C])[sp].d(T)[sp].d(A)[sp].d(G)[sp].d([m5C])[sp].d(G)[sp].d([m5C])[sp].d(G)[sp].d([m5C])[sp].[moe](G)p.[moe](A)[sp].[moe]([m5C])}$$$$ (last 3' nucleoside missing),3 score 0-7
22,RNA1{[moe]([m5C])[sp].[moe]([m5C])p.[moe](G)p.[moe](G)p.d([m5C])[sp].d([m5C])[sp].d([m5C])[sp].d([m5C])[sp].d(T)[sp].d(A)[sp].d(G)[sp].d([m5C])[sp].d(G)[sp].[moe]([m5C])p.[moe](G)p.[moe]([m5C])p.[moe](G)[sp].[moe](A)}$$$$ (last 3' nucleoside missing),6 score 0-7
23,RNA1{[moe]([m5C])[sp].[moe](T)p.[moe](G)p.[moe](G)p.[moe](T)p.[moe](T)p.[moe](A)p.d(A)[sp].d(T)[sp].d([m5C])[sp].d(T)[sp].d(T)[sp].d(T)[sp].d(A)[sp].d(T)[sp].d([m5C])[sp].d(A)[sp].[moe](G)[sp].[moe](G)}$$$$ (last 3' nucleoside missing),2.25 score 0-7
24,RNA1{[moe](G)[sp].[moe](G)p.[moe](T)p.[moe](T)p.[moe](A)p.[moe](A)[sp].d(T)[sp].d([m5C])[sp].d(T)[sp].d(T)[sp].d(T)[sp].d(A)[sp].d(T)[sp].d([m5C])[sp].[moe](A)p.[moe](G)[sp].[moe](G)}$$$$ (last 3' nucleoside missing),1.25 score 0-7
25,RNA1{[moe](G)[sp].[moe]([m5C])p.[moe]([m5C])p.[moe]([m5C])p.[moe]([m5C])p.[moe](T)p.d(A)[sp].d(G)[sp].d([m5C])[sp].d(G)[sp].d([m5C])[sp].d(G)[sp].d([m5C])[sp].d(G)[sp].d(A)[sp].d([m5C])[sp].[moe](T)p.[moe]([m5C])[sp].[moe]([m5C])}$$$$ (last 3' nucleoside missing),0 score 0-7
26,RNA1{[moe](G)[sp].[moe](G)p.[moe](T)p.[moe](T)p.[moe](A)p.[moe](A)p.d(T)[sp].d([m5C])[sp].d(T)[sp].d(T)[sp].d(T)[sp].d(A)[sp].d(T)[sp].d([m5C])[sp].d(A)[sp].d(G)[sp].[moe](G)p.[moe](T)[sp].[moe]([m5C])}$$$$ (last 3' nucleoside missing),1.5 score 0-7
